Laboratory results reported in PubChem BioAssay AID449764 (Southern Research Specialized Biocontainment Screening …, 2010).

System: Mycobacterium tuberculosis H37Rv growth inhibition, no glycerol
Assay: Mycobacterium tuberculosis H37Rv growth inhibition, no glycerol, confirmatory dose response (AID 449764);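 also: growth read after 7 days of incubation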
Conditions: for IC90: measured here: IC90 growth inhibition

Q: `CCc1ccc2oc(-c3ccc(OC)cc3)cc(=Nc3c(C)n(C)n(-c4ccccc4)c3=O)c2c1` was tested. Which IC50 did it give?
A: Its IC50 is 18.8 µM.

Q: And the IC90?
A: Its IC90 is 23.4 µM.

Q: Which results are given for `NC(N)=Nc1nc(-c2ccccc2)c2ccccc2n1`?
A: IC50: 90.1 µM; IC90: > 100 µM

Q: Which results are given for `Cc1ccc(NS(=O)(=O)c2ccc(NC(=O)CN(c3cc([N+](=O)[O-])ccc3C)S(C)(=O)=O)cc2)c(C)c1`?
A: IC50: 33.1 µM; IC90: > 100 µM

Q: Which results are given for `C/C(=C\C(=S)Nc1ccccc1)Nc1ccc2ccccc2c1`?
A: IC50: 37.8 µM; IC90: 50.8 µM

Q: What does the source list for `Cc1nc([N+](=O)[O-])c(Br)n1CC(=O)c1ccc2ccccc2c1`?
A: IC50: 11.2 µM; IC90: 12.7 µM

Q: For `c1ccc2c(c1)CCN(c1nc(CN3CCOCC3)nc3sc4c(c13)CCCC4)C2`, which IC50 is on record?
A: The IC50 was 45.2 µM.

Q: And the IC90?
A: The IC90 was 52.7 µM.

Q: Which results are given for `CCc1cc(C(=O)Nc2nc(-c3ccccn3)cs2)sc1C`?
A: IC50: 4.53 µM; IC90: 8.86 µM

Q: What does the source list for `Cc1[nH]c2ccc(OC(F)(F)F)cc2c1CCNCc1ccc(Cl)cc1`?
A: IC50: 14.2 µM; IC90: 18.8 µM

Q: `Cc1cc2[nH]c3c(c[n+](C)c4ccccc34)c2cc1C` was tested. Which IC50 did it give?
A: The IC50 was 9.9 µM.

Q: And the IC90?
A: The IC90 was 15.6 µM.

Q: How did the IC50 turn out when `O=C(C1CC1)N1CCCC(c2ccc(Cl)cc2)=N1` was run?
A: Its IC50 is 42.3 µM.

Q: And the IC90?
A: Its IC90 is 63.5 µM.

Q: With `C/C(=N\NC(N)=S)C1C2C3CC4C5CC(C42)C1C53` (stereo not given) as the molecule, how does the IC50 read?
A: The IC50 was 22.1 µM.

Q: What about the IC90 of the same molecule?
A: Its IC90 is 31.8 µM.

Q: `CCOC(=O)/C(=N/Nc1ccccc1)c1csc(Nc2ccccc2)n1` was tested. Which IC50 did it give?
A: Its IC50 is 41.6 µM.

Q: And the IC90?
A: The IC90 was over 100 µM.

Q: With `CCOc1ccc(NC(=O)CCc2nnc3ccc(N4CCC(C)CC4)nn23)cc1` as the molecule, how does the IC50 read?
A: Its IC50 is 12.5 µM.

Q: And the IC90?
A: Its IC90 is 14.7 µM.

Q: `CCCCNc1nc(N(C)c2ccccc2)nc(-n2ccnc2)n1` was tested. Which IC90 did it give?
A: Its IC90 is over 100 µM.

Q: What does the source list for `CCC(=O)N1c2ccc(S(=O)(=O)CCC(=O)N3CCn4c3nc3ccccc34)cc2CC1C` (stereo not given)?
A: IC50: 23.4 µM; IC90: 27.5 µM

Q: `CCOC(=O)c1nn(-c2ccc(C)c(C)c2)cc1O` was tested. Which IC50 did it give?
A: The IC50 was 99.8 µM.

Q: And the IC90?
A: The IC90 was over 100 µM.

Q: With `O=[N+]([O-])c1ccc(-n2cnc3ccccc32)c([N+](=O)[O-])c1` as the molecule, how does the IC50 read?
A: Its IC50 is 96.4 µM.

Q: And the IC90?
A: Its IC90 is over 100 µM.

Q: For `Fc1nc(F)c(F)c(NCCCNc2c(F)c(F)nc(F)c2F)c1F`, which IC90 is on record?
A: The IC90 was over 100 µM.

Q: Which IC50 does the source give for `COc1ccc(C(CC(=O)c2ccccc2)S(=O)(=O)c2ccc(C)cc2)cc1` (stereo not given) here?
A: The IC50 was 56.3 µM.

Q: And the IC90?
A: The IC90 was 92.2 µM.

Q: For `COc1ccccc1NC(=O)Nc1nc(CC(=O)N2CCN(c3ccccc3F)CC2)cs1`, which IC90 is on record?
A: The IC90 was over 100 µM.

Q: For `CC(C)CNc1nnnc2c1sc1nc(N3CCOCC3)c3c(c12)CC(C)(C)SC3`, which IC90 is on record?
A: The IC90 was over 100 µM.

Q: Which results are given for `Cc1cc(=O)oc2cc(Oc3ccc([N+](=O)[O-])cc3C(F)(F)F)ccc12`?
A: IC50: 50 µM; IC90: > 100 µM

Q: `CC(C)(C)C(=O)NC(=S)NNC(=O)c1sc2ccccc2c1Cl` was tested. Which IC50 did it give?
A: The IC50 was 43.9 µM.

Q: What about the IC90 of the same molecule?
A: The IC90 was over 100 µM.

Q: How did the IC50 turn out when `COC(=O)/C(=C1/Oc2cc(C)oc(=O)c2S1)C(F)(F)F` was run?
A: Its IC50 is 26 µM.

Q: And the IC90?
A: Its IC90 is over 100 µM.

Q: Which IC50 does the source give for `CC1CCc2c(sc3ncnc(NCCCOC(C)C)c23)C1` (stereo not given) here?
A: Its IC50 is 59.3 µM.

Q: What about the IC90 of the same molecule?
A: The IC90 was 74.2 µM.

Q: For `O=C(Oc1c(Cl)cc(Cl)c2cccnc12)c1cccs1`, which IC50 is on record?
A: Its IC50 is 1.28 µM.

Q: What about the IC90 of the same molecule?
A: Its IC90 is 1.38 µM.

Q: How did the IC50 turn out when `C=CCOc1ccc(C2=NOC(C(=O)Nc3ccc4c(c3)OCCO4)C2)cc1` (stereo not given) was run?
A: Its IC50 is 41.4 µM.

Q: And the IC90?
A: Its IC90 is 60 µM.

Q: For `CCC[C@@H]1C[C@@H](C(=O)NC(C(C)Cl)[C@H]2O[C@H](SC)[C@H](O)[C@@H](O)[C@H]2O)N(C)C1` (stereo not given in full), which IC50 is on record?
A: The IC50 was 3.91 µM.

Q: And the IC90?
A: The IC90 was 11.5 µM.

Q: `CC(C)(C)NC(=O)[C@@H]1C[C@@H]2CCCC[C@@H]2CN1C[C@@H](O)[C@H](Cc1ccccc1)NC(=O)[C@H](CC(N)=O)NC(=O)c1ccc2ccccc2n1` was tested. Which IC50 did it give?
A: Its IC50 is 32.9 µM.

Q: What about the IC90 of the same molecule?
A: The IC90 was 52.8 µM.

Q: What does the source list for `Cc1c(C(=O)N(C)C)sc2nc(-c3ccccn3)[nH]c(=O)c12`?
A: IC50: 19.5 µM; IC90: 31.4 µM

Q: Which IC50 does the source give for `CCCCNC(=S)Nc1ccc2cn[nH]c2c1` here?
A: Its IC50 is 12 µM.

Q: And the IC90?
A: Its IC90 is 31.8 µM.

Q: Which IC50 does the source give for `Cn1nc(-c2ccccn2)nc2c(=O)n(C)c(=O)nc1-2` here?
A: Its IC50 is 12.5 µM.

Q: What about the IC90 of the same molecule?
A: Its IC90 is 13 µM.

Q: Which IC50 does the source give for `CC(C)(C)C(=O)/C(=C\c1cccc([N+](=O)[O-])c1)n1cncn1` here?
A: The IC50 was 3 µM.

Q: What about the IC90 of the same molecule?
A: The IC90 was 3.41 µM.

Q: How did the IC50 turn out when `O=C(/C=C/c1ccc(O)cc1)c1ccc(NC2=C(N3CCCCC3)C(=O)c3ccccc3C2=O)cc1` was run?
A: Its IC50 is 17.5 µM.

Q: What about the IC90 of the same molecule?
A: Its IC90 is 22.4 µM.

Q: How did the IC90 turn out when `Cc1ccnc(NC(=O)c2cc3ccccc3o2)c1` was run?
A: The IC90 was over 50 µM.

Q: `CC(NC(=O)CCl)c1ccc(Cl)c(Cl)c1` (stereo not given) was tested. Which IC50 did it give?
A: The IC50 was 4.1 µM.

Q: And the IC90?
A: The IC90 was 7.74 µM.

Q: With `C[n+]1c(-c2ccccc2)cc(CCCCc2cc(-c3ccccc3)[n+](C)c(-c3ccccc3)c2)cc1-c1ccccc1` as the molecule, how does the IC50 read?
A: The IC50 was 24.8 µM.

Q: What about the IC90 of the same molecule?
A: The IC90 was 28.3 µM.

Q: How did the IC50 turn out when `O=[N+]([O-])c1ccc(-c2nc(-c3cccs3)c(-c3cccs3)[nH]2)cc1` was run?
A: Its IC50 is 20.8 µM.

Q: And the IC90?
A: Its IC90 is over 100 µM.

Q: How did the IC50 turn out when `Cc1ccsc1/C=C1\SC(N2CCOCC2)=NC1=O` was run?
A: The IC50 was 23.4 µM.

Q: And the IC90?
A: The IC90 was 27 µM.

Q: With `C[C@@H]1CN([C@H](C)CO)C(=O)c2cc(NC(=O)Nc3ccc(C(F)(F)F)cc3)ccc2O[C@H]1CN(C)S(=O)(=O)c1cccs1` as the molecule, how does the IC50 read?
A: The IC50 was 21.7 µM.

Q: And the IC90?
A: Its IC90 is 24.1 µM.

Q: Which IC50 does the source give for `COc1ccc(/C=N/OCC(=O)OCC(=O)N(C)c2ccccc2)cc1` here?
A: Its IC50 is 25.9 µM.

Q: What about the IC90 of the same molecule?
A: The IC90 was 51.8 µM.

Q: For `CCOC(=O)c1cc2cc3ccccc3cc2oc1=O`, which IC50 is on record?
A: Its IC50 is 84.8 µM.

Q: What about the IC90 of the same molecule?
A: Its IC90 is over 100 µM.

Q: How did the IC50 turn out when `CCCn1c(Nc2nc3ccccc3n2C)nc2ccccc21` was run?
A: Its IC50 is 65.3 µM.

Q: And the IC90?
A: The IC90 was 75.8 µM.

Q: How did the IC50 turn out when `Nc1nc(Cl)cc(N2CCC(c3cc(-c4ccc(Cl)cc4Cl)n[nH]3)CC2)n1` was run?
A: The IC50 was 25.9 µM.

Q: And the IC90?
A: The IC90 was 30.1 µM.

Q: Which IC50 does the source give for `CC(c1ccccc1)N1CCN(C(=O)CCl)CC1` (stereo not given) here?
A: The IC50 was 2.75 µM.

Q: What about the IC90 of the same molecule?
A: The IC90 was 4.33 µM.
